# Test results published in patent US20040043940A1, “Use of ectoin or ectoin derivatives for protecting stress proteins in the skin” (priority 2000, published 2004).
# System: HSP 72/73
# Experiment: Heat-shock induction of HSP 72/73 stress proteins in primary human keratinocytes (immunofluorescence)
# Assay type: cell-based
# Procedure: This was ascertained by spreading primary human keratinocytes on microscopic slides and cultivating them over a period of 3 days at 37° C. in KGM 2 medium (Cell Systems). The human keratinocytes were incubated to a confluence of approximately 60% and part of the culture was then treated with 1% ectoin based on the supernatant of the culture medium. The untreated portion of the culture served as control. Following treatment, the human keratinocytes were incubated for a further 16 hours at 37° C. The cultures were then subjected to heat shock by raising the temperature quickly from 37° C. to 44° C. The experiments were carried out by the method proposed by Holland et al in J. Invest Dermatol. (1993), 101: 196-199. Following this heat-shock treatment, incubation was carried out at 37° C. for a further 2 hours. The cells were then fixed. Fixing was carried out in 3 stages:
# fixing solution A (1% CH3COOH/40% ethanol in deionized water v/v, 4° C.), 5 min,
# fixing solution B (96% ethanol in deionized water v/v, 4° C.), 5 min,
# fixing solution A, 5 min.
# The stress proteins produced were stained by immunofluorescence, which process involved the following steps:
# blockage of non-specific bonding sites with a blocking agent (10% BSA in phosphate buffer): 45 min, 37° C.,
# incubation with the primary antibody anti HSP 72/73 (1:200 dilution in phosphate buffer): 45 min, 37° C.,
# incubation with the FITC-conjugated secondary antibody goat anti mouse (1:200 dilution in phosphate buffer): 45 min, 37° C.,
# covering of the specimens with fluorescent covering medium and slide cover glasses.
# The stess proteins were determined quantitatively as HSP 72/73 under a microscope (BX40, filter: WB, burner: U-RFL-T, Olympus).
structure (smiles),measurement,setting,value
"CC1=N[C@H](C(=O)O)CCN1 [ectoin, (S)-1,4,5,6-tetrahydro-2-methyl-4-pyrimidinecarboxylic acid]",protection of human skin cells against stress factors,"in vitro, ectoin-treated versus untreated skin cells",significantly better
same,induction of HSP 72/73 stress proteins,"primary human keratinocytes, 1% ectoin pretreatment 16 hours, heat shock 37° C. to 44° C., compared with untreated cultures",significantly faster
same,period until HSP 72/73 concentration maximum,"primary human keratinocytes, 1% ectoin pretreatment, heat shock 44° C., untreated cells 60 minutes",30 min
